Where “and” joins values, the source holds several entries; their conditions need not be identical. Equal entries are not always repeated. Calls of active or inactive are those of the source.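 The calls were made as follows: active = IC50 no higher than ten times the top tested dose; inconclusive = flat fit with 30 to 70% inhibition, or poor fit; inactive = IC50 above ten times the top dose.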
Columns and labels:
[1] = growth modulation of Clostridium difficile isolate – OD600, 9-point, retest, dose response (AID 1224920); conditions: Clostridium difficile clinical isolate growth, OD600, 24 h;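 also: inhibitors lower culture turbidity so OD600 falls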;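 as to activity change, negative = inhibition: plate controls were DMSO for no effect and levofloxacin control for full effect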
[2] = tested on: Clostridium difficile clinical isolate growth, OD600, 24 h; experiment: as above

SMILES	IC50 [2]	also measured
CN1c2ccc(Br)cc2[C@H]2[C@H](CCN2C(=O)Nc2ccc(F)cc2)[C@@H]1CO		activity change, negative = inhibition ([1]; at 120 µM (top of the series)): 55.4% (inactive)
C[C@H](CO)N1C[C@H](C)[C@H](CN(C)Cc2ccc(Oc3ccccc3)cc2)Oc2ccc(NS(=O)(=O)c3ccccc3)cc2CC1=O		activity change, negative = inhibition ([1]; at 60 µM (top of the series)): 33.6% (inactive)
COc1ccccc1-c1ccc(C2[C@@H]3CN(Cc4nccs4)C[C@H]2N3)cc1 (stereo not given in full)		activity change, negative = inhibition ([1]; at 68 µM (top of the series)): 37.9% (inactive)
COc1ccccc1S(=O)(=O)N1CC[C@@H]2[C@@H](CO)Nc3ccc(-c4ccc(F)cc4)cc3[C@@H]21		activity change, negative = inhibition ([1]; at 135 µM (top of the series)): 47% (inactive)
Cc1cccc(-c2ccc([C@@H]3[C@@H](CO)N4CCCCN(CCC(F)(F)F)C[C@@H]34)cc2)c1		activity change, negative = inhibition ([1]; at 30 µM (top of the series)): 25% (inactive)
CC(=O)N1[C@H](CO)[C@@H](c2ccccc2)[C@@H]1CN(C)C(=O)CN1CCOCC1		activity change, negative = inhibition ([1]; at 120 µM (top of the series)): -9.56% (inactive)
CC(=O)NC[C@@H]1[C@H](c2ccc(-c3cccc(F)c3)cc2)[C@H](CO)N1C(C)=O		activity change, negative = inhibition ([1]; at 120 µM (top of the series)): -6.3% (inactive)
CC(=O)N1[C@@H](CO)[C@H](c2ccccc2)[C@@H]1CN(C)C(=O)CN1CCOCC1		activity change, negative = inhibition ([1]; at 120 µM (top of the series)): -5.04% (inactive)
N#C[C@H]1[C@@H](c2ccccc2-c2ccccc2)[C@H](CO)N1C(=O)Cc1ccccc1		activity change, negative = inhibition ([1]; at 120 µM (top of the series)): 32.6% (inactive)
Cc1cccc(-c2ccc(C3[C@@H]4CN(C(=O)Cc5ccncc5)C[C@H]3N4)cc2)c1 (stereo not given in full)		activity change, negative = inhibition ([1]; at 60 µM (top of the series)): 39.4% (inactive)
CC(=O)N1[C@H](CO)[C@@H](c2ccccc2)[C@H]1CN(C)C(=O)CN1CCOCC1		activity change, negative = inhibition ([1]; at 135 µM (top of the series)): -1.86% (inactive)
O=C(NC[C@H]1N[C@H](CO)[C@@H]1c1ccc(C2=CCCCC2)cc1)C1CCCC1		activity change, negative = inhibition ([1]; at 60 µM (top of the series)): 38.1% (inactive)
CN(C)C(=O)C[C@H]1C=C[C@H](NC(=O)C2CCOCC2)[C@H](CO)O1		activity change, negative = inhibition ([1]; at 120 µM (top of the series)): -14.4% (inactive)
O=C(NC[C@H]1N[C@H](CO)[C@@H]1c1ccc(C2=CCCC2)cc1)C1CCCCC1		activity change, negative = inhibition ([1]; at 60 µM (top of the series)): 36.2% (inactive)
C/C=C/c1ccc([C@@H]2[C@H](CO)N(C(=O)CC)[C@H]2CNC(=O)CC)cc1		activity change, negative = inhibition ([1]; at 120 µM (top of the series)): -7.3% (inactive)
CN(C)CC(=O)N1C[C@@H]2N[C@H](C1)C2c1ccc(/C=C/c2ccccc2)cc1 (stereo not given in full)		activity change, negative = inhibition ([1]; at 60 µM (top of the series)): 46.6% (inactive)
Cc1ccc(S(=O)(=O)Nc2cccc3c2O[C@@H](CN(C)S(=O)(=O)c2ccccc2)[C@H](C)CN([C@H](C)CO)C3=O)cc1		activity change, negative = inhibition ([1]; at 120 µM (top of the series)): -24.7% (inactive)
O=C(Cc1ccccc1)N1CC[C@@H]2[C@H](CO)Nc3ccc(C4=CCCCC4)cc3[C@@H]21		activity change, negative = inhibition ([1]; at 68 µM (top of the series)): 29.4% (inactive)
O=C(C[C@H]1CC[C@H]2[C@@H](COC[C@H](O)CN2C(=O)Nc2cc(Cl)cc(Cl)c2)O1)N1CCOCC1	15 µM	
Fc1cccc(-c2ccc(C3[C@H]4CNC[C@@H]3N4Cc3ccccc3F)cc2)c1 (stereo not given in full)	60.5 µM	
O=C(c1ccc2c(c1)OCO2)N1C[C@@H]2N[C@H](C1)C2c1ccc(/C=C/c2ccccc2)cc1 (stereo not given in full)	12.4 µM	
COc1cccc(C#Cc2ccc3c(c2)[C@@H]2[C@@H](CCN2C(=O)c2ccccc2F)[C@@H](CO)N3C)c1	27.7 µM	
O=C(Nc1ccccc1)N1CCCCN2[C@@H](CO)[C@H](c3ccc(C#Cc4ccccc4)cc3)[C@@H]2C1	19.2 µM	
CC(C)CC#Cc1ccc([C@H]2[C@@H](CO)N3CCCCN(C(=O)Nc4ccccc4)C[C@H]23)cc1	12.8 µM	
Cc1ccccc1-c1ccc(C2[C@H]3CNC[C@@H]2N3Cc2ccc3c(c2)OCO3)cc1 (stereo not given in full)	27.7 µM	
Cc1ccccc1-c1ccc(C2[C@@H]3CN(S(=O)(=O)c4ccccc4C)C[C@H]2N3)cc1 (stereo not given in full)	27.5 µM	
COc1ccccc1CN1CC[C@@H]2[C@H]1c1cc(C#Cc3ccccc3)ccc1N[C@@H]2CO	26.2 µM	

SMILES	IC50 [2]	also measured
C/C=C/c1ccc(C2[C@H]3CNC[C@@H]2N3C(=O)Nc2cccc(Cl)c2)cc1 (stereo not given in full)	54.4 µM	
COc1cccc(S(=O)(=O)N2C[C@@H]3N[C@H](C2)C3c2ccc(-c3cccc(C)c3)cc2)c1 (stereo not given in full)	8.9 µM	
O=C(C[C@H]1CC[C@H]2[C@@H](COC[C@@H](O)CN2C(=O)Nc2ccc(C(F)(F)F)cc2)O1)NC1Cc2ccccc2C1	16.6 µM	
Cc1cccc(-c2ccc(C3[C@@H]4CN(C(=O)Nc5ccc(F)cc5)C[C@H]3N4)cc2)c1 (stereo not given in full)	12.2 µM	
O=C(Nc1ccc(F)cc1)N1[C@@H]2CNC[C@H]1C2c1ccc(/C=C/c2ccccc2)cc1 (stereo not given in full)	13.8 µM	
O=C(C[C@H]1CC[C@@H]2[C@H](COC[C@H](O)CN2C(=O)Nc2ccc(Cl)c(Cl)c2)O1)NC1CCC1	8.25 µM	
N#Cc1ccc(-c2ccc3c(c2)[C@H]2[C@H](CCN2C(=O)c2ccncc2)[C@H](CO)N3)cc1	> 120 µM (inactive)	
Cc1ccccc1-c1ccc(C2[C@@H]3CN(C(=O)Nc4ccc(F)cc4)C[C@H]2N3)cc1 (stereo not given in full)	40.5 µM	
Cc1cccc(-c2ccc(C3[C@@H]4CN(C(=O)C5CCCC5)C[C@H]3N4)cc2)c1 (stereo not given in full)	62.9 µM	
Cc1ccccc1-c1ccc([C@@H]2[C@H](CO)N3CCCCN(C(=O)Nc4ccc(F)cc4)C[C@@H]23)cc1	13.9 µM	
COc1cccc(CN2[C@@H]3CNC[C@H]2C3c2ccc(-c3cccc(OC)c3)cc2)c1 (stereo not given in full)	13.3 µM	
Cc1ccccc1-c1ccc(C2[C@@H]3CN(C(=O)C4CCCCC4)C[C@H]2N3)cc1 (stereo not given in full)	60.7 µM	
COc1ccc(C#Cc2ccc([C@H]3[C@@H](CO)N4CCCCN(Cc5ccccc5F)C[C@H]34)cc2)cc1	4.95 µM	
COc1ccc(S(=O)(=O)N2[C@@H]3CNC[C@H]2C3c2ccc(-c3cccc(C)c3)cc2)cc1 (stereo not given in full)	83 µM	
COc1cccc(-c2ccc(C3[C@@H]4CN(S(=O)(=O)c5ccccc5F)C[C@H]3N4)cc2)c1 (stereo not given in full)	82 µM	
Cc1ccc(-c2ccc(C3[C@@H]4CN(S(=O)(=O)c5cccc(C)c5)C[C@H]3N4)cc2)cc1 (stereo not given in full)	8.64 µM	
O=C(NC1CCCCC1)N1C[C@@H]2N[C@H](C1)C2c1ccc(-c2ccc(F)cc2)cc1 (stereo not given in full)	59.7 µM	
C[C@@H]1CN([C@@H](C)CO)C(=O)c2cccc(NC(=O)Nc3ccc(C(F)(F)F)cc3)c2O[C@H]1CN(C)C(=O)Nc1ccc(C(F)(F)F)cc1	22.2 µM	
Cc1ccccc1-c1ccc(C2[C@@H]3CN(Cc4cocn4)C[C@H]2N3)cc1 (stereo not given in full)	45.5 µM	
Fc1cccc(-c2ccc(C3[C@@H]4CN(Cc5ccccc5F)C[C@H]3N4)cc2)c1 (stereo not given in full)	6.44 µM and 6.35 µM	
OC[C@H]1Nc2ccc(-c3ccccc3)cc2[C@@H]2[C@H]1CCN2Cc1ccccc1F	129 µM	
Cc1ccccc1-c1ccc(C2[C@H]3CNC[C@@H]2N3S(=O)(=O)c2ccc(Cl)cc2)cc1 (stereo not given in full)	35.8 µM	
COc1ccc(S(=O)(=O)N2CCCCN3[C@H](CO)[C@H](c4ccc(C5=CCCCC5)cc4)[C@H]3C2)cc1	29.5 µM	
COc1ccc(-c2ccc(C3[C@@H]4CN(S(=O)(=O)c5ccccc5C)C[C@H]3N4)cc2)cc1 (stereo not given in full)	21.9 µM	
OC[C@H]1[C@@H](c2ccc(C#CC3CCCC3)cc2)[C@H]2CN(CCC(F)(F)F)CCCCN21	9.49 µM	
O=C(Nc1ccc(C(F)(F)F)cc1)N1[C@@H]2CNC[C@H]1C2c1ccc(-c2ccccc2F)cc1 (stereo not given in full)	10.3 µM and 83.8 µM	
O=C(C1CCCCC1)N1CC2(C1)[C@H](c1ccccc1)[C@H](CO)N2Cc1ccc(Cl)cc1	33.7 µM	

SMILES	IC50 [2]	also measured
N#Cc1ccc(-c2ccc3c(c2)[C@@H]2[C@@H](CCN2Cc2ccc4c(c2)OCO4)[C@@H](CO)N3)cc1	32.3 µM	
O=C(C[C@H]1CC[C@@H]2[C@H](COC[C@@H](O)CN2C(=O)Nc2ccc(Cl)c(Cl)c2)O1)NCc1ccncc1	8.71 µM	
COc1ccccc1NC(=O)N1CCCCN2[C@@H](CO)[C@@H](c3ccc(-c4ccc(C)cc4)cc3)[C@@H]2C1	28.7 µM	
OC[C@@H]1Nc2ccc(C#Cc3ccc(F)cc3)cc2[C@H]2NCC[C@@H]12	59.4 µM	
COc1cccc(-c2ccc(C3[C@H]4CNC[C@@H]3N4Cc3cc(F)ccc3F)cc2)c1 (stereo not given in full)	30 µM	
Cc1ccc(-c2ccc([C@@H]3[C@H](CO)N4CCCCN(C(=O)Nc5ccccc5)C[C@@H]34)cc2)cc1	20.2 µM	
COc1cccc(CN2[C@@H]3CNC[C@H]2C3c2ccc(-c3ccccc3C)cc2)c1 (stereo not given in full)	29.5 µM	
COc1ccc(C#Cc2ccc([C@@H]3[C@H](CO)N4CCCCN(Cc5ccccc5F)C[C@@H]34)cc2)cc1	8.12 µM	
Cc1cccc(-c2ccc(C3[C@H]4CNC[C@@H]3N4C(=O)Nc3ccc(F)cc3)cc2)c1 (stereo not given in full)	30.6 µM	
COc1cccc(-c2ccc(C3[C@H]4CNC[C@@H]3N4Cc3ccc(F)cc3)cc2)c1 (stereo not given in full)	11.9 µM	
N#Cc1ccc(-c2ccc(C3[C@@H]4CN(C(=O)Nc5ccc(C(F)(F)F)cc5)C[C@H]3N4)cc2)cc1 (stereo not given in full)	29.7 µM	
O=C(Nc1cccc(F)c1)N1C[C@@H]2N[C@H](C1)C2c1ccc(-c2ccccc2F)cc1 (stereo not given in full)	27 µM and 65.3 µM	
O=C(C1CCCCC1)N1C[C@@H]2N[C@H](C1)C2c1ccc(-c2ccccc2F)cc1 (stereo not given in full)	55.9 µM	
Fc1ccc(-c2ccc(C3[C@@H]4CN(Cc5ccccc5)C[C@H]3N4)cc2)cc1 (stereo not given in full)	5.92 µM and 31.9 µM	
C/C=C/c1ccc(C2[C@H]3CNC[C@@H]2N3Cc2cccc(F)c2)cc1 (stereo not given in full)	31.1 µM	
C(=C\c1ccc(C2[C@@H]3CN(Cc4ccc5c(c4)OCO5)C[C@H]2N3)cc1)/c1ccccc1 (stereo not given in full)	6.94 µM and 6.61 µM	
COc1ccccc1NC(=O)N1CCCCN2[C@@H](CO)[C@@H](c3ccc(-c4cccc(C)c4)cc3)[C@@H]2C1	23.5 µM	
COc1ccc(-c2ccc(C3[C@H]4CNC[C@@H]3N4Cc3cc(OC)cc(OC)c3)cc2)cc1 (stereo not given in full)	11.1 µM	
Cc1ccccc1-c1ccc(C2[C@@H]3CN(S(=O)(=O)Cc4ccccc4)C[C@H]2N3)cc1 (stereo not given in full)	33.8 µM	
Fc1cccc(CN2C[C@@H]3N[C@H](C2)[C@@H]3c2ccc(-c3cccc(F)c3)cc2)c1	6.05 µM	
Cc1cccc(-c2ccc(C3[C@@H]4CN(Cc5ccccc5)C[C@H]3N4)cc2)c1 (stereo not given in full)	17.1 µM	
CCNC(=O)C[C@H]1CC[C@H]2[C@@H](COC[C@@H](O)CN2C(=O)Nc2ccc(C(F)(F)F)cc2)O1	8.27 µM	
Cc1ccccc1-c1ccc(C2[C@H]3CNC[C@@H]2N3S(=O)(=O)c2ccccc2C)cc1 (stereo not given in full)	31.8 µM	
N#Cc1cccc(-c2ccc(C3[C@H]4CNC[C@@H]3N4Cc3cccc(F)c3)cc2)c1 (stereo not given in full)	55.7 µM	
O=C(NC[C@H]1N[C@H](CO)[C@@H]1c1ccc(C2=CCCCC2)cc1)c1ccccc1	58.2 µM	
COc1ccccc1CN1C[C@@H]2N[C@H](C1)C2c1ccc(-c2ccccc2)cc1 (stereo not given in full)	13.3 µM	

Source: PubChem BioAssay AID1224920 (Broad Institute, 2016)
